Results published in the supplement of paper PMC10883282.

Key:
Experiment in all cases: relative viability vs DMSO control (72 h) (fraction); higher = more viable cells
G401 = test system: G401
How it was run: (§1)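 Sarcoma cell lines in 384-well plates, seeded to reach 80–90% confluence, were given compound after 24 h and kept 72 h at 37 °C, 5% CO2, with 0.1% DMSO vehicle and a 5 µM positive control. Relative viability came from ATPLite as percent growth, averaged over up to triplicate wells. On the rescaled values, 1 equals full and 0 equals none.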

HS729 = test system: HS729
How it was run: as §1

SYO-1 = test system: SYO-1
How it was run: as §1

SW872 = test system: SW872
How it was run: as §1

VA-ES-BJ = test system: VA-ES-BJ
How it was run: as §1

A204 = test system: A204
How it was run: as §1

SK-ES-1 = test system: SK-ES-1
How it was run: as §1

SK-LMS-1 = test system: SK-LMS-1
How it was run: as §1

SW684 = test system: SW684
How it was run: as §1

MES-SA = test system: MES-SA
How it was run: as §1

RD = test system: RD
How it was run: as §1

KHOS-NP = test system: KHOS-NP
How it was run: as §1

COc1cc(OC)c(/C=C/S(=O)(=O)Cc2ccc(OC)c(NCC(=O)O)c2)c(OC)c1 [Rigosertib]
Settings	relative viability
A204, 0.00017 µM	1.08
A204, 0.00051 µM	1.06
A204, 0.00152 µM	1.08
A204, 0.00457 µM	1.0898
A204, 0.01372 µM	1.09
A204, 0.04115 µM	1.07
A204, 0.1235 µM	1.01
A204, 0.3704 µM	0.672
A204, 1.111 µM	0.398
A204, 3.333 µM	0.319
A204, 10 µM	0.248
G401, 0.00017 µM	1.01
G401, 0.00051 µM	1
G401, 0.00152 µM	0.993
G401, 0.00457 µM	1.02
G401, 0.01372 µM	1.04
G401, 0.04115 µM	1.01
G401, 0.1235 µM	0.983
G401, 0.3704 µM	0.919
G401, 1.111 µM	0.534
G401, 3.333 µM	0.424
G401, 10 µM	0.361
HS729, 0.00017 µM	0.973
HS729, 0.00051 µM	0.989
HS729, 0.00152 µM	0.934
HS729, 0.00457 µM	0.938
HS729, 0.01372 µM	1.02
HS729, 0.04115 µM	0.966
HS729, 0.1235 µM	0.928
HS729, 0.3704 µM	0.85
HS729, 1.111 µM	0.625
HS729, 3.333 µM	0.579
HS729, 10 µM	0.517
KHOS-NP, 0.00017 µM	1.09
KHOS-NP, 0.00051 µM	1.09
KHOS-NP, 0.00152 µM	1.1
KHOS-NP, 0.00457 µM	1.11
KHOS-NP, 0.01372 µM	1.1
KHOS-NP, 0.04115 µM	1.11
KHOS-NP, 0.1235 µM	1.08
KHOS-NP, 0.3704 µM	0.704
KHOS-NP, 1.111 µM	0.478
KHOS-NP, 3.333 µM	0.414
KHOS-NP, 10 µM	0.357
MES-SA, 0.00017 µM	0.901
MES-SA, 0.00051 µM	0.906
MES-SA, 0.00152 µM	0.911
MES-SA, 0.00457 µM	0.91
MES-SA, 0.01372 µM	0.918
MES-SA, 0.04115 µM	0.932
MES-SA, 0.1235 µM	0.607
MES-SA, 0.3704 µM	0.271
MES-SA, 1.111 µM	0.172
MES-SA, 3.333 µM	0.13
MES-SA, 10 µM	0.13
RD, 0.00017 µM	1.08
RD, 0.00051 µM	1.09
RD, 0.00152 µM	1.08
RD, 0.00457 µM	1.094
RD, 0.01372 µM	1.05
RD, 0.04115 µM	1.04
RD, 0.1235 µM	0.825
RD, 0.3704 µM	0.372
RD, 1.111 µM	0.215
RD, 3.333 µM	0.23
RD, 10 µM	0.256
SK-ES-1, 0.00017 µM	1
SK-ES-1, 0.00051 µM	1.02
SK-ES-1, 0.00152 µM	0.98
SK-ES-1, 0.00457 µM	1.08
SK-ES-1, 0.01372 µM	1.03
SK-ES-1, 0.04115 µM	0.987
SK-ES-1, 0.1235 µM	0.252
SK-ES-1, 0.3704 µM	0.038
SK-ES-1, 1.111 µM	0.0202
SK-ES-1, 3.333 µM	0.0195
SK-ES-1, 10 µM	0.0239
SK-LMS-1, 0.00017 µM	1.08
SK-LMS-1, 0.00051 µM	1.05
SK-LMS-1, 0.00152 µM	1.05
SK-LMS-1, 0.00457 µM	1.03
SK-LMS-1, 0.01372 µM	1.03
SK-LMS-1, 0.04115 µM	0.912
SK-LMS-1, 0.1235 µM	0.659
SK-LMS-1, 0.3704 µM	0.492
SK-LMS-1, 1.111 µM	0.359
SK-LMS-1, 3.333 µM	0.355
SK-LMS-1, 10 µM	0.325
SW684, 0.00017 µM	1.14
SW684, 0.00051 µM	1.2
SW684, 0.00152 µM	1.15
SW684, 0.00457 µM	1.19
SW684, 0.01372 µM	1.19
SW684, 0.04115 µM	1.15
SW684, 0.1235 µM	1.02
SW684, 0.3704 µM	0.73
SW684, 1.111 µM	0.681
SW684, 3.333 µM	0.713
SW684, 10 µM	0.756
SW872, 0.00017 µM	1.04
SW872, 0.00051 µM	1.05
SW872, 0.00152 µM	1.05
SW872, 0.00457 µM	1.06
SW872, 0.01372 µM	1.045
SW872, 0.04115 µM	1.06
SW872, 0.1235 µM	1.019
SW872, 0.3704 µM	0.927
SW872, 1.111 µM	0.515
SW872, 3.333 µM	0.479
SW872, 10 µM	0.477
SYO-1, 0.00017 µM	0.957
SYO-1, 0.00051 µM	0.982
SYO-1, 0.00152 µM	0.96
SYO-1, 0.00457 µM	0.961
SYO-1, 0.01372 µM	0.942
SYO-1, 0.04115 µM	0.966
SYO-1, 0.1235 µM	0.941
SYO-1, 0.3704 µM	0.896
SYO-1, 1.111 µM	0.3561
SYO-1, 3.333 µM	0.287
SYO-1, 10 µM	0.305
VA-ES-BJ, 0.00017 µM	1.05
VA-ES-BJ, 0.00051 µM	1.03
VA-ES-BJ, 0.00152 µM	1.02
VA-ES-BJ, 0.00457 µM	1.03
VA-ES-BJ, 0.01372 µM	1.05
VA-ES-BJ, 0.04115 µM	0.961
VA-ES-BJ, 0.1235 µM	0.772
VA-ES-BJ, 0.3704 µM	0.53
VA-ES-BJ, 1.111 µM	0.43
VA-ES-BJ, 3.333 µM	0.403
VA-ES-BJ, 10 µM	0.2992
